Laboratory results from the supplement of paper PMC10307832.

Columns and labels:
Test in all cases: relative viability (nuclei count vs DMSO), 5 days (fraction); higher = more cells survive
[1] = system: 201T
In short: (§1)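 The day after seeding in 1536-well plates, lung cancer cell lines were treated by pin tool with a single drug, or with a fixed anchor-drug dose together with five library-drug doses (not always all listed) in √10 steps. After 5 days, a combined fix-and-stain solution (final 0.05% Triton X-100, 1% formaldehyde, 1 ug/ml Hoechst) was added. Nuclei counted on 4× images gave relative viability as treated counts over vehicle counts, reported as the median of duplicate plates.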

[2] = system: COR-L23
In short: as §1

[3] = system: EPLC-272H
In short: as §1

[4] = system: H3255
In short: as §1

[5] = system: HCC-15
In short: as §1

[6] = system: LOU-NH91
In short: as §1

[7] = system: NCI-H1650
In short: as §1

[8] = system: NCI-H1734
In short: as §1

[9] = system: NCI-H1793
In short: as §1

[10] = system: NCI-H2023
In short: as §1

[11] = system: NCI-H2170
In short: as §1

[12] = system: NCI-H2347
In short: as §1

[13] = system: NCI-H2405
In short: as §1

[14] = system: NCI-H3122
In short: as §1

[15] = system: NCI-H322M
In short: as §1

[16] = system: NCI-H441
In short: as §1

[17] = system: NCI-H520
In short: as §1

[18] = system: NCI-H647
In short: as §1

[19] = system: PC-14
In short: as §1

[20] = system: SW 900
In short: as §1

[21] = system: UMC-11
In short: as §1

CC(=O)O[C@@]12CO[C@@H]1C[C@H](O)[C@@]1(C)C(=O)[C@H](O)C3=C(C)[C@@H](OC(=O)[C@H](O)[C@@H](NC(=O)OC(C)(C)C)c4ccccc4)C[C@@](O)([C@@H](OC(=O)c4ccccc4)[C@H]21)C3(C)C [Docetaxel] + O=C(c1cc(Cc2n[nH]c(=O)c3ccccc23)ccc1F)N1CCN(C(=O)C2CC2)CC1 [Olaparib] (partner 8 µM)
relative viability ([1]; first compound 0.0002 µM): 0.821 | relative viability ([1]; first compound 0.000632 µM): 0.774 | relative viability ([1]; first compound 0.002 µM): 0.637 | relative viability ([1]; first compound 0.006325 µM): 0.432 | relative viability ([1]; first compound 0.02 µM): 0.267 | relative viability ([2]; first compound 0.0002 µM): 0.307 | relative viability ([2]; first compound 0.000632 µM): 0.312 | relative viability ([2]; first compound 0.002 µM): 0.161 | relative viability ([2]; first compound 0.006325 µM): 0.134 | relative viability ([2]; first compound 0.02 µM): 0.0881 | relative viability ([3]; first compound 0.0002 µM): 0.527 | relative viability ([3]; first compound 0.000632 µM): 0.339 | relative viability ([3]; first compound 0.002 µM): 0.0991 | relative viability ([3]; first compound 0.006325 µM): 0.0687 | relative viability ([3]; first compound 0.02 µM): 0.0452 | relative viability ([4]; first compound 0.0002 µM): 0.59 | relative viability ([4]; first compound 0.000632 µM): 0.555 | relative viability ([4]; first compound 0.002 µM): 0.439 | relative viability ([4]; first compound 0.006325 µM): 0.336 | relative viability ([4]; first compound 0.02 µM): 0.33 | relative viability ([5]; first compound 0.0002 µM): 0.72 | relative viability ([5]; first compound 0.000632 µM): 0.382 | relative viability ([5]; first compound 0.002 µM): 0.281 | relative viability ([5]; first compound 0.02 µM): 0.175 | relative viability ([6]; first compound 0.0002 µM): 0.915 | relative viability ([6]; first compound 0.000632 µM): 0.839 | relative viability ([6]; first compound 0.002 µM): 0.567 | relative viability ([6]; first compound 0.006325 µM): 0.396 | relative viability ([6]; first compound 0.02 µM): 0.315 | relative viability ([7]; first compound 0.0002 µM): 0.64 | relative viability ([7]; first compound 0.000632 µM): 0.545 | relative viability ([7]; first compound 0.002 µM): 0.218 | relative viability ([7]; first compound 0.006325 µM): 0.241 | relative viability ([7]; first compound 0.02 µM): 0.162 | relative viability ([8]; first compound 0.0002 µM): 0.498 | relative viability ([8]; first compound 0.000632 µM): 0.506 | relative viability ([8]; first compound 0.002 µM): 0.292 | relative viability ([8]; first compound 0.006325 µM): 0.324 | relative viability ([8]; first compound 0.02 µM): 0.196 | relative viability ([9]; first compound 0.0002 µM): 0.8 | relative viability ([9]; first compound 0.000632 µM): 0.517 | relative viability ([9]; first compound 0.002 µM): 0.287 | relative viability ([9]; first compound 0.006325 µM): 0.293 | relative viability ([10]; first compound 0.0002 µM): 0.437 | relative viability ([10]; first compound 0.000632 µM): 0.313 | relative viability ([10]; first compound 0.002 µM): 0.114 | relative viability ([10]; first compound 0.006325 µM): 0.114 | relative viability ([10]; first compound 0.02 µM): 0.0533 | relative viability ([11]; first compound 0.0002 µM): 0.611 | relative viability ([11]; first compound 0.000632 µM): 0.475 | relative viability ([11]; first compound 0.002 µM): 0.342 | relative viability ([11]; first compound 0.006325 µM): 0.136 | relative viability ([11]; first compound 0.02 µM): 0.126 | relative viability ([12]; first compound 0.0002 µM): 0.613 | relative viability ([12]; first compound 0.000632 µM): 0.566 | relative viability ([12]; first compound 0.002 µM): 0.557 | relative viability ([12]; first compound 0.006325 µM): 0.505 | relative viability ([12]; first compound 0.02 µM): 0.388 | relative viability ([13]; first compound 0.0002 µM): 0.875 | relative viability ([13]; first compound 0.000632 µM): 0.712 | relative viability ([13]; first compound 0.002 µM): 0.557 | relative viability ([13]; first compound 0.006325 µM): 0.419 | relative viability ([13]; first compound 0.02 µM): 0.329 | relative viability ([14]; first compound 0.0002 µM): 0.658 | relative viability ([14]; first compound 0.000632 µM): 0.623 | relative viability ([14]; first compound 0.002 µM): 0.521 | relative viability ([14]; first compound 0.006325 µM): 0.202 | relative viability ([14]; first compound 0.02 µM): 0.129 | relative viability ([15]; first compound 0.0002 µM): 0.777 | relative viability ([15]; first compound 0.000632 µM): 0.797 | relative viability ([15]; first compound 0.002 µM): 0.721 | relative viability ([15]; first compound 0.006325 µM): 0.679 | relative viability ([15]; first compound 0.02 µM): 0.525 | relative viability ([16]; first compound 0.0002 µM): 0.446 | relative viability ([16]; first compound 0.000632 µM): 0.324 | relative viability ([16]; first compound 0.002 µM): 0.223 | relative viability ([16]; first compound 0.006325 µM): 0.158 | relative viability ([16]; first compound 0.02 µM): 0.161 | relative viability ([17]; first compound 0.0002 µM): 0.31 | relative viability ([17]; first compound 0.000632 µM): 0.286 | relative viability ([17]; first compound 0.002 µM): 0.22 | relative viability ([17]; first compound 0.006325 µM): 0.165 | relative viability ([17]; first compound 0.02 µM): 0.132 | relative viability ([18]; first compound 0.0002 µM): 0.449 | relative viability ([18]; first compound 0.000632 µM): 0.132 | relative viability ([18]; first compound 0.002 µM): 0.0799 | relative viability ([18]; first compound 0.006325 µM): 0.0764 | relative viability ([18]; first compound 0.02 µM): 0.0432 | relative viability ([19]; first compound 0.0002 µM): 0.276 | relative viability ([19]; first compound 0.000632 µM): 0.164 | relative viability ([19]; first compound 0.002 µM): 0.0642 | relative viability ([19]; first compound 0.006325 µM): 0.0438 | relative viability ([19]; first compound 0.02 µM): 0.0274 | relative viability ([20]; first compound 0.0002 µM): 0.817 | relative viability ([20]; first compound 0.000632 µM): 0.353 | relative viability ([20]; first compound 0.002 µM): 0.281 | relative viability ([20]; first compound 0.006325 µM): 0.266 | relative viability ([20]; first compound 0.02 µM): 0.172 | relative viability ([21]; first compound 0.0002 µM): 0.371 | relative viability ([21]; first compound 0.000632 µM): 0.352 | relative viability ([21]; first compound 0.002 µM): 0.221 | relative viability ([21]; first compound 0.006325 µM): 0.289 | relative viability ([21]; first compound 0.02 µM): 0.229
